One experiment deals with SREBP2. Briefly: SREBP2 expression and activation in hepatocytes (real-time PCR, SRE-GFP reporter, immunoblot, immunofluorescence). It is filed as cell-based, human, mouse. Conditions: for activation and nuclear localization of SREBP2: immunoblots of whole-cell lysates. Here is the method: Cells were washed in phosphate-buffered saline (PBS), lysed in 4× SDS-PAGE lysis buffer and separated on 7-10% polyacrylamide gels in denaturing conditions. Gels were transferred to nitrocellulose membranes using the BioRad mini trans-blot system, blocked in 5% skim milk in tris-buffered saline (TBS) for 1 h and incubated in primary antibody overnight for 16 h at 4° C. Membranes were then exposed to horse radish peroxidase conjugated secondary antibodies and visualized using EZ-ECL chemiluminescent reagent (Froggabio). Band intensities were quantified using ImageJ software ([…]) against membranes reprobed for housekeeping proteins.
Cells were plated in 4-well chamber slides and incubated in complete DMEM for 24 h and exposed to treatments 24 h later for an additional 24 h. Cells were fixed with 4% paraformaldehyde for 30 minutes and washed with either non-permeabilizing, or permeabilizing PBS containing 0.025% Triton-X. Cells were then blocked with 1% bovine serum albumin (BSA) for 30 minutes and stained with anti-GFP antibody for 1 h in PBS containing 1% BSA. Afterwards, cells were washed and incubated with Alexa 488 fluorescently-labelled secondary antibodies (Thermofisher Scientific), as well as the DAPI nuclear stain. Slides were then mounted with permafluor and visualized using the EVOS FL colour imaging system at either 20 or 40× magnification.
RNA purification/isolation was performed using RNeasy mini kits (Qiagen) and normalized to 2 μg RNA using a NanoDrop® spectrophotometer. Samples were then reverse transcribed into cDNA using Superscript Vilo cDNA Synthesis kit (Thermofisher Scientific). Real-time PCR was executed with Fast SYBR Green (Thermo Fisher Scientific) using the ΔΔct method on the ViiA7 real-time PCR platform (Thermofisher Scientific).
Therefore, the effect of CF on TG-; induced SREBP2 activation was examined. […] SREBP2 activity was then examined at the protein level in HuH7 cells transfected with a plasmid encoding GFP driven by the sterol regulatory element (SRE-GFP; FIG. 2E to G). […] GFP expression was also visualized via immunofluorescent staining and quantified using ImageJ Software.
For orientation: Quantitative PCR measures a nucleic acid by following its amplification.

The next experiment relates to PCSK9. Description: PCSK9 secretion from cultured and primary hepatocytes (ELISA of medium). It is filed as cell-based, human, mouse. Conditions: for PCSK9 secretion with Ca2+-modulating agents: ELISA of medium. How it is done: HuH7 and HepG2 cells were routinely grown in complete Dulbecco's Modified Eagle's Medium (Gibco, Thermofisher Scientific) supplemented with 10% fetal bovine serum (Sigma-Aldrich) and 100 U/ml of penicillin and streptomycin (Sigma-Aldrich). […] All cell treatments were carried out for 24 h unless otherwise stated. Cells were transfected with a cocktail consisting of plasmid DNA (1 μg), X-tremeGENE HP (3 μl; Thermofisher Scientific) and opti-MEM (100 μl; Thermofischer Scientific) per 1 ml complete medium containing plated cells. Human PCSK9 was overexpressed using the bicistronic pIRES-EGFP plasmid; calnexin using the mPA-GFP-N1 plasmid. To block the expression of GRP78 and CD36, siGENOME smartpool siRNA was purchased from GE Dharmacon (M-008198-02 and L-010206-00-0005 respectively) and transfected using lipofectamine RNAiMAX as per manufacturer's protocol.
Secreted PCSK9 levels were assessed directly in cell culture medium of cells grown in FBS-free medium for 24 h or in the serum isolated from either mice or human subjects. Mouse PCSK9 was measured using the Quantikinine® ELISA kit (#MCP900, R&D Systems) and human PCSK9 using the PCSK9 Quantikinine® ELISA kit (#DCP900, R&D Systems). Serum ApoB levels were also quantified using ELISAs (#DAPB00, R&D Systems). Serum samples were diluted as per manufacturer's instructions.
All animal studies were carried out in 8 h-fasted male wild-type, Pcsk9^−/− or Ampkβ1^−/− mice on the C57BL/6J background. CF (25-100 mg/kg-8 h) and CDN (50 mg/kg) treatments were administered via intraperitoneal injection unless specified otherwise. Primary mouse hepatocytes were isolated using a two-step process with EGTA ([…] in HEPES buffer, Sigma Aldrich) and collagenase (0.05% in HEPES buffer, Sigma Aldrich) in 12-week-old male mice on the C57BL/6J background. Cells were then washed, centrifuged, and plated following isolation in cell strainers. Hepatosure® 100-donor pooled primary human hepatocytes were purchased from Xenotech. Primary hepatocytes were regularly grown in William's E medium (Gibco, Thermo Fisher Scientific) containing 10% fetal bovine serum, 100 IU/ml penicillin, and 100 µg/ml streptomycin.
(An ELISA detects its analyte on a solid surface through an enzyme-linked reagent.)

Entries after “also recorded” stand apart in the source; their conditions may differ.

For `Cc1ccc2cccc(NC(=O)c3ccc(OC(C)C)cc3)c2n1` [CDN], in the experiment on SREBP2, the “activation and nuclear localization of SREBP2” value was “antagonized the activation and nuclear localization of SREBP2”. Also, in the experiment on PCSK9, the “PCSK9 secretion with Ca2+-modulating agents” value is recorded as “blocked PCSK9 secretion”.

With `C/C=C(/C)C(=O)O[C@H]1C(C)=C2[C@H]([C@@H]1OC(=O)CCCCCCC)[C@@](C)(OC(C)=O)C[C@H](OC(=O)CCC)[C@@]1(O)[C@H]2OC(=O)[C@@]1(C)O` [TG, thapsigargin], the “activation and nuclear localization of SREBP2” value with SREBP2 is listed as “opposite effect”. Further, in the experiment with PCSK9, the “PCSK9 secretion with Ca2+-modulating agents” value was “blocked PCSK9 secretion”.

In the case of `Cn1c(=O)c2c(ncn2C)n(C)c1=O` [caffeine, 1,3,7-Trimethylxanthine], in the experiment with SREBP2 (HuH7, TG-treated, immunofluorescence), the “re-localization of SREBP2 to the nucleus” value is listed as “attenuated the re-localization of SREBP2”. In addition, the “nuclear SREBP2 (nSREBP2) and SRE-driven GFP expression” value in the experiment with SREBP2 (HuH7 transfected with SRE-GFP, presence and absence of TG, listed as CF) was “blocked the nuclear/activated isoform of SREBP2; also recorded: blocks SREBP2 activation”. Besides, the SREBP2 expression result in the experiment with SREBP2 (PMH, PHH, HepG2, real-time PCR) is “blocked the expression of SREBP2”. Further, the “activation and nuclear localization of SREBP2” value in the experiment with SREBP2 is “antagonized the activation and nuclear localization of SREBP2”. In addition, the PCSK9 secretion result with PCSK9 (HuH7, HepG2, PMH, PHH, listed as CF) was “blocked the secretion of PCSK9; also recorded: blocks PCSK9 expression and secretion”.

For the origin of these results see patent publication US20260151398A1, “COMPOUNDS FOR REDUCING CHOLESTEROL AND TREATING LIVER AND KIDNEY DISEASE” (McMaster University, priority 2021, published 2026).
